Measured values taken from US20080193411A1, “Anti-viral Compounds” (Genelabs Technologies, Inc., priority 2006, published 2008).

Tested on: HCV replication
Experiment: HCV replicon assay (luciferase), ET (Huh-lucubineo-ET) cell line
Assay type: cell-based
Details: Hepatitis C virus; tested at 10 μM; ET (Huh-lucubineo-ET) replicon cells; luciferase activity 48-72 hours; relative to no compound control
Protocol: A cell line, ET (Huh-lucubineo-ET) was used for screening of compounds of the present invention for inhibiting HCV replication. The ET cell line was stably transfected with RNA transcripts harboring a I389luc-ubi-neo/NS3-3′/ET; replicon with firefly luciferase-ubiquitin-neomycin phosphotransferase fusion protein and EMCV-IRES driven NS3-5B polyprotein containing the cell culture adaptive mutations (E1202G; T1280I; K1846T) (Krieger at al, 2001 and unpublished). The ET cells were grown in DMEM (Dulbeco's Modified Eagle's Medium), supplemented with 10% fetal calf serum, 2 mM Glutamine, Penicillin (100 IU/mL)/Streptomycin (100 μg/mL), 1× nonessential amino acids, and 250 μg/mL G418 (“Geneticin”). They were all available through Life Technologies (Bethesda, Md.). The cells were plated at 0.5-1.0×10^4 cells/well in the 96 well plates and incubated for 24 hrs before adding testing compounds. Then the compounds were added to the cells to achieve a final concentration of 0.1 nM to 50 μM and a final DMSO concentration of 0.5%. Luciferase activity were measured 48-72 hours later by adding a lysis buffer and the substrate (Catalog number Glo-lysis buffer E2661 and Bright-Glo luciferase system E2620 Promega, Madison, Wis.). Cells should not be too confluent during the assay. Percent inhibition of replication was plotted relative to no compound control. Under the same condition, cytotoxicity of the compounds was determined using cell proliferation reagent, WST-1 (Roche, Germany). The compounds showing antiviral activities, but no significant cytotoxicities were chosen to determine EC50 and TC50. For these determinations, a 10 point 2-fold serial dilution for each compound was used, which spans a concentration range of 1000 fold. EC50 and similarly TC50 values were calculated by fitting % inhibition at each concentration to the following equation:
% inhibition=100%/[(IC50/[I])^b+1]
where b is Hill's coefficient.
In some preferred embodiments compounds of Formula I will have a % inhibition of at least 20% when tested at 10 μM. In other embodiments the compounds of Formula I will have a % inhibition of at least 50% when tested at 10 μM.

| Structure (SMILES) | inhibition at 10 µM |
| --- | --- |
| O=C(Cc1ccc(-c2ccc([C@@H]3CCCN3C(=O)OCc3ccccc3)cc2)cc1)NC1CC1 (stereo in doubt) [Compound 4002, 2-(4′-Cyclopropylcarbamoylmethyl-biphenyl-4-yl)-pyrrolidine-1-carboxylic acid benzyl ester] | 33.3% |
| O=C(Cc1cccc(-c2ccc([C@@H]3CCCN3C(=O)OCc3ccccc3)cc2)c1)NC1CC1 (stereo in doubt) [Compound 4043, 2-(3′-Cyclopropylcarbamoylmethyl-biphenyl-4-yl)-pyrrolidine-1-carboxylic acid benzyl ester] | 40% |
| O=C(NC1CC1)c1ccc(-c2ccc([C@@H]3CCCN3C(=O)OCc3ccccc3)cc2)cc1 (stereo in doubt) [Compound 4044, 2-(4′-Cyclopropylcarbamoyl-biphenyl-4-yl)-pyrrolidine-1-carboxylic acid benzyl ester] | 53.1% |
| O=C(NC1CC1)c1cccc(-c2ccc3nc([C@@H]4CCCN4C(=O)OCc4ccccc4)[nH]c3c2)c1 [Compound 4001, (S)-2-[6-(3-Cyclopropylcarbamoyl-phenyl)-1H-benzoimidazol-2-yl]-pyrrolidine-1-carboxylic acid benzyl ester] | 94.5% |
| O=C(Cc1cccc(-c2ccc3nc([C@@H]4CCCN4C(=O)OCc4ccccc4)[nH]c3c2)c1)NC1CC1 [Compound 4003, (S)-2-[6-(3-Cyclopropylcarbamoylmethyl-phenyl)-1H-benzoimidazol-2-yl]-pyrrolidine-1-carboxylic acid benzyl ester] | 97% |
| O=C(Nc1ccc(-c2cccc(C#C[C@@H]3CCCN3C(=O)OCc3ccccc3)c2)cc1)C1CC1 [Compound 4004, (S)-2-[4′-(Cyclopropanecarbonyl-amino)-biphenyl-3-ylethynyl]-pyrrolidine-1-carboxylic acid benzyl ester] | 81.8% |
| O=C(OCc1ccccc1)N1CCC[C@H]1c1nc2ccc(-c3ccc4[nH]ccc4c3)cc2s1 [Compound 4005, (S)-2-[6-(1H-Indol-5-yl)-benzothiazol-2-yl]-pyrrolidine-1-carboxylic acid benzyl ester] | 1.7% |
| O=C(OCc1ccccc1)N1CCC[C@H]1c1nc2ccc(-c3ccccc3)cc2[nH]1 [Compound 4007, (S)-2-(6-Phenyl-1H-benzoimidazol-2-yl)-pyrrolidine-1-carboxylic acid benzyl ester] | 4.4% |
| Nc1ccc(-c2ccc3nc([C@@H]4CCCN4C(=O)OCc4ccccc4)[nH]c3c2)cc1 [Compound 4008, (S)-2-[6-(4-Amino-phenyl)-1H-benzoimidazol-2-yl]-pyrrolidine-1-carboxylic acid benzyl ester] | 13.6% |
| O=C(OCc1ccccc1)N1CCC[C@H]1c1nc2ccc(-c3ccc4ccccc4c3)cc2[nH]1 [Compound 4011, (S)-2-(6-Naphthalen-2-yl-1H-benzoimidazol-2-yl)-pyrrolidine-1-carboxylic acid benzyl ester] | 87% |
| O=C(OCc1ccccc1)N1CCC[C@H]1c1nc2ccc(-c3cccc4cc[nH]c34)cc2[nH]1 [Compound 4014, (S)-2-[6-(1H-Indol-7-yl)-1H-benzoimidazol-2-yl]-pyrrolidine-1-carboxylic acid benzyl ester] | 12.7% |
| COc1ccc(-c2ccc3nc([C@@H]4CCCN4C(=O)OCc4ccccc4)[nH]c3c2)c(OC)c1 [Compound 4017, (S)-2-[6-(2,4-Dimethoxy-phenyl)-1H-benzoimidazol-2-yl]-pyrrolidine-1-carboxylic acid benzyl ester] | 42.4% |
| O=C(NC1CC1)c1ccc(-c2ccc3nc([C@@H]4CCCN4C(=O)OCc4ccccc4)oc3c2)cc1 [Compound 4019, (S)-2-[6-(4-Cyclopropylcarbamoyl-phenyl)-benzooxazol-2-yl]-pyrrolidine-1-carboxylic acid benzyl ester] | 50.5% |
| O=C(NC1CC1)c1ccc(-c2ccc3nc([C@@H]4CCCN4C(=O)OCc4ccccc4)[nH]c3c2)cc1 [Compound 4020, (S)-2-[6-(4-Cyclopropylcarbamoyl-phenyl)-1H-benzoimidazol-2-yl]-pyrrolidine-1-carboxylic acid benzyl ester] | 96.1% |
| O=C(Cc1ccc(-c2ccc3nc([C@@H]4CCCN4C(=O)OCc4ccccc4)[nH]c3c2)cc1)NC1CC1 [Compound 4021, (S)-2-[6-(4-Cyclopropylcarbamoylmethyl-phenyl)-1H-benzoimidazol-2-yl]-pyrrolidine-1-carboxylic acid benzyl ester] | 64.5% |
| O=C(NC1CC1)c1ccc(-c2ccc3nc([C@@H]4CCCN4C(=O)OCc4ccccc4)sc3c2)cc1 [Compound 4022, 2-[6-(4-Cyclopropylcarbamoyl-phenyl)-benzothiazol-2-yl]-pyrrolidine-1-carboxylic acid benzylester] | 14.9% |
| O=C(Cc1ccc(-c2cccc(C#C[C@@H]3CCCN3C(=O)OCc3ccccc3)c2)cc1)NC1CC1 [Compound 4024, 2-(4′-Cyclopropylcarbamoyl-methyl-biphenyl-3-ylethynyl)-pyrrolidine-1-carboxylic acid benzylester] | 45.9% |
| O=C(OCc1ccccc1)N1CCC[C@H]1c1nc2ccc(-c3cccs3)cc2[nH]1 [Compound 4029, (S)-2-(6-Thiophen-2-yl-1H-benzoimidazol-2-yl)-pyrrolidine-1-carboxylic acid benzyl ester] | 78.1% |
| O=C(OCc1ccccc1)N1CCC[C@H]1c1nc2ccc(-c3ccco3)cc2[nH]1 [Compound 4030, (S)-2-(6-Furan-2-yl-1H-benzoimidazol-2-yl)-pyrrolidine-1-carboxylic acid benzyl ester] | 66.8% |
| O=C(OCc1ccccc1)N1CCC[C@H]1c1nc2ccc(-c3ccc4c(c3)OCO4)cc2[nH]1 [Compound 4032, (S)-2-(6-Benzo[1,3]dioxol-5-yl-1H-benzoimidazol-2-yl)-pyrrolidine-1-carboxylic acid benzyl ester] | 25.8% |
| O=C(OCc1ccccc1)N1CCC[C@H]1c1nc2ccc(-c3cc([N+](=O)[O-])c4[nH]ccc4c3)cc2[nH]1 [Compound 4033, (S)-2-[6-(7-Nitro-1H-indol-5-yl)-1H-benzoimidazol-2-yl]-pyrrolidine-1-carboxylic acid benzyl ester] | 97.5% |
| NC(=O)Nc1ccc(-c2ccc3nc([C@@H]4CCCN4C(=O)OCc4ccccc4)[nH]c3c2)cc1 [Compound 4034, (S)-2-[6-(4-Ureido-phenyl)-1H-benzoimidazol-2-yl]-pyrrolidine-1-carboxylic acid benzyl ester] | 24.1% |
| O=C(OCc1ccccc1)N1CCC[C@H]1c1nc2ccc(-c3ccc4[nH]ccc4c3)cc2[nH]1 [Compound 4035, (S)-2-[6-(1H-Indol-5-yl)-1H-benzoimidazol-2-yl]-pyrrolidine-1-carboxylic acid benzyl ester] | 99.9% |
| O=C(Nc1cccc(-c2ccc3nc([C@@H]4CCCN4C(=O)OCc4ccccc4)[nH]c3c2)c1)C1CC1 [Compound 4037, (S)-2-{6-[3-(Cyclopropanecarbonyl-amino)-phenyl]-1H-benzoimidazol-2-yl}-pyrrolidine-1-carboxylic acid benzyl ester] | 97.6% |
| O=C(OCc1ccccc1)N1CCC[C@H]1c1nc2ccc(-c3ccc4[nH]ccc4c3)cc2o1 [Compound 4039, (S)-2-[6-(1H-Indol-5-yl)-benzooxazol-2-yl]-pyrrolidine-1-carboxylic acid benzyl ester] | 49.6% |
| O=C(NCc1ccc(-c2cccc(C#C[C@@H]3CCCN3C(=O)OCc3ccccc3)c2)cc1)C1CC1 [Compound 4041, (S)-2-{4′-[(Cyclopropanecarbonyl-amino)-methyl]-biphenyl-3-ylethynyl}-pyrrolidine-1-carboxylic acid benzyl ester] | 45.8% |
| CC(=O)c1cccc(-c2ccc3nc([C@@H]4CCCN4C(=O)OCc4ccccc4)[nH]c3c2)c1 [Compound 4045, (S)-2-[6-(3-Acetyl-phenyl)-1H-benzoimidazol-2-yl]-pyrrolidine-1-carboxylic acid benzyl ester] | 99.8% |
| O=C(OCc1ccccc1)N1CCC[C@H]1c1nc2ccc(-c3ccc4[nH]c5ccccc5c4c3)cc2[nH]1 [Compound 4047, (S)-2-[6-(9H-Carbazol-3-yl)-1H-benzoimidazol-2-yl]-pyrrolidine-1-carboxylic acid benzyl ester] | 98.2% |
| N#Cc1ccc(-c2ccc3nc([C@@H]4CCCN4C(=O)OCc4ccccc4)[nH]c3c2)cc1 [Compound 4049, (S)-2-[6-(4-Cyano-phenyl)-1H-benzoimidazol-2-yl]-pyrrolidine-1-carboxylic acid benzyl ester] | 20% |
